In US20100093985A1, “USE OF AT LEAST ONE CYTOSOLIC PHOSPHOLIPASE A2 INHIBITOR AS A MEDICINE FOR SYMPTOMATIC TREATMENT OF MUCOVISCIDOSIS” (INSTITUT PASTEUR, priority 2006, published 2010):

Tested on: CFTR+/+ and CFTR−/− mice
Experiment: Production of mucus in the airways of mice (alcian blue score), with or without LPS from P. aeruginosa
Type: in vivo, mouse
Details: for Average Score (production of mucus in the airways): D4
Method: The studies were carried out on a cystic fibrosis model established in C57BL/6J mice (Cftr^tmUNC mice) kept on a mixed gene pool by the “Centre de Distribution, de Typage et d'Archivage Animal” UPS44 CNRS in Orléans. Wild-type CFTR^+/+ and mutant CFTR^−/− mice were weaned at 3-4 weeks and fed with food supplemented with a commercial laxative, Movicol®. Without laxative CFTR^−/− mice die rapidly after weaning due to bowel obstructions resulting from a change in the secretion of fluids in the digestive tract.
The experiments were conducted on groups of at least 5 mice aged 5-7 weeks for each category of treatment.
The products used were dissolved in an injectable saline solution (or physiological saline) and injected by intratracheal (i.t.) or intraperitoneal (i.p.) route.
The use protocol was as follows:
1) Aspirin (50 mg/kg, i.p.), 30 minutes before LPS, then each day, once a day;
2) ATK (20 mg/kg, i.p.), 30 minutes before LPS and 24 hours after.
The mice were anesthetized with 2% xylazine (8 mg/kg) and ketamine 1000 (40 mg/kg) before the infusion of LPS (330 μg/kg, i.t.).
Bronchoalveolar lavages (BALs) and lung samplings were carried out 4 days after the infusion of LPS, as indicated below:
The lungs were infused with 4% formaldehyde to remove the blood and immersed in 4% formaldehyde for 48 hours at 4° C. before being added to paraffin.
Sections 5 μm thick were stained with hemotoxylin/eosin, periodic acid-Schiff (PAS) and alcian blue (AB; pH 2.4) according to standard methods (Histologie Normale et Pathologique. P. GANTER & G. Jolies, Gauthier-Villars).
After microscopic examination of the sections stained with alcian blue, which colours the mucus, the positive bronchi and cells were counted. The “number of positive bronchi/number of positive cells” ratio makes it possible to establish the score which serves to evaluate the results of the mucus production studies (see below).

SMILES: CC(=O)Oc1ccccc1C(=O)O [asp, aspirin]
- Average Score (production of mucus in the airways) (CFTR+/+ mice, LPS 330 μg/kg i.t. + aspirin 50 mg/kg i.p.): 0
- Average Score (production of mucus in the airways) (CFTR+/+ mice, control (physiological saline, no LPS) + aspirin 50 mg/kg i.p.): 0.25
- secretion of mucus (CFTR−/− mice stimulated by infusion with LPS of Pseudomonas aeruginosa): inhibited
- Average Score (production of mucus in the airways) (CFTR−/− mice, LPS 330 μg/kg i.t. + aspirin 50 mg/kg i.p.): 0
- Average Score (production of mucus in the airways) (CFTR−/− mice, control (physiological saline, no LPS) + aspirin 50 mg/kg i.p.): 0.50
